Eight compounds from ChEMBL document CHEMBL1125711, “Flavins as potential antimalarials. 2. 3-Methyl-10-(substituted-phenyl) flavins” (J Med Chem, 1991) can be followed below.

Test [1] has as its system Mus musculus. The test is described as follows: Increase in mean survival days was determined in mice after ip administration of 10 mg/kg. It is filed as functional. The settings on record: route intraperitoneal.
In test [2] the test system is Mus musculus. The test is described as follows: Increase in mean survival days was determined in mice after ip administration of 30 mg/kg. Format: functional. Conditions: route intraperitoneal.
The test system of test [3] is Mus musculus. The test is described as follows: Increase in mean survival days was determined in mice after ip administration of 40 mg/kg; toxic. Format: functional. The settings on record: route intraperitoneal.
The subject of test [4] is Mus musculus. The test is described as follows: Increase in mean survival days was determined in mice after ip administration of 50 mg/kg; toxic. Format: functional. Conditions: route intraperitoneal.
In test [5] the test system is Mus musculus. The test is described as follows: Increase in mean survival days was determined in mice after ip administration of 70 mg/kg; toxic. It is filed as functional. The settings on record: route intraperitoneal.
Test [6] deals with Plasmodium vinckei vinckei. In words: Antimalarial activity against Plasmodium vinckei V52 on 10 mg/kg intraperitoneal dose. It is filed as functional.
The test system of test [7] is Mus musculus. The test is described as follows: Antimalarial activity was evaluated against Plasmodium vinckei vinckei V52 after intraperitoneal administration at dose 40 mg/kg. Format: functional.
The subject of test [8] is Mus musculus. The test is described as follows: Antimalarial activity was evaluated against Plasmodium vinckei vinckei V52 after intraperitoneal administration at dose 50 mg/kg. It is filed as functional.
The test system of test [9] is Plasmodium vinckei vinckei. The test is described as follows: Antimalarial activity against Plasmodium vinckei V52 on 70 mg/kg intraperitoneal dose. Format: functional.
Test [10] deals with Plasmodium vinckei vinckei. The test is described as follows: Antimalarial activity against Plasmodium vinckei V52 after 30 mg/kg intraperitoneal dose.
Test [11] relates to Mus musculus. The test is described as follows: Antimalarial activity was evaluated against Plasmodium vinckei vinckei V52 after intraperitoneal administration at dose 70 mg/kg. It is filed as functional.
For test [12], the system named is Mus musculus. In words: Antimalarial activity was evaluated against Plasmodium vinckei vinckei V52 after intraperitoneal administration at dose 10 mg/kg. Format: functional.
Test [13] deals with Mus musculus. The test is described as follows: Increase in mean survival days was determined in mice after ip administration of 20 mg/kg. Format: functional. Conditions: route intraperitoneal.
The test system of test [14] is Mus musculus. The test is described as follows: Increase in mean survival days was determined in mice after ip administration of 50 mg/kg. It is filed as functional. The settings on record: route intraperitoneal.
Test [15] has as its system Mus musculus. The test is described as follows: Increase in mean survival days was determined in mice after ip administration of 60 mg/kg. Format: functional. Conditions: route intraperitoneal.
For test [16], the species on record is Mus musculus. In words: Effective dose required to obtain a parasitaemia of 40% 48 hours after treatment in mice. It is filed as functional.
In test [17] the test system is Mus musculus. In words: Antimalarial activity was evaluated against Plasmodium vinckei V52 after intraperitoneal administration at dose 30 mg/kg. It is filed as functional.
Test [18] concerns Mus musculus. In words: Antimalarial activity was evaluated against Plasmodium vinckei V52 after intraperitoneal administration at dose 20 mg/kg. It is filed as functional.
The test system of test [19] is Mus musculus. In words: Antimalarial activity was evaluated against Plasmodium vinckei V52 after intraperitoneal administration at dose 60 mg/kg. It is filed as functional.
The subject of test [20] is Plasmodium vinckei vinckei. The test is described as follows: Increase in mean survival days of Plasmodium inoculated mice (Mus musculus) after 70 mg/Kg intraperitoneal dose. Format: functional.
In test [21] the test system is Plasmodium vinckei vinckei. The test is described as follows: Antimalarial activity against Plasmodium vinckei V52 on 30 mg/kg intraperitoneal dose. It is filed as functional.
Test [22] relates to Mus musculus. In words: Antimalarial activity was evaluated against Plasmodium vinckei V52 after intraperitoneal administration at dose 50 mg/kg. It is filed as functional.
Test [23] relates to Mus musculus. The test is described as follows: Increase in mean survival days was determined in mice after ip administration of 15 mg/kg. It is filed as functional. Conditions: route intraperitoneal.
Test [24] is filed under the species Mus musculus. The test is described as follows: Effective dose required to obtain a parasitaemia of 40% 48 hours after treatment in mice. Format: functional.
Test [25] relates to Mus musculus. The test is described as follows: Antimalarial activity was evaluated against Plasmodium vinckei vinckeii V52 after intraperitoneal administration at dose 40 mg/kg. Format: functional.
Test [26] relates to Mus musculus. The test is described as follows: Antimalarial activity was evaluated against Plasmodium vinckei V52 after intraperitoneal administration at dose 15 mg/kg. Format: functional.
Test [27] relates to Mus musculus. In words: Antimalarial activity was evaluated against Plasmodium vinckei V52 after intraperitoneal administration at dose 25 mg/kg. It is filed as functional.
For test [28], the system named is Mus musculus. The test is described as follows: Antimalarial activity was evaluated against Plasmodium vinckei vinckei V52 after intraperitoneal administration at dose 50 mg/kg. It is filed as functional.
For test [29], the system named is Plasmodium vinckei vinckei. The test is described as follows: Antimalarial activity against Plasmodium vinckei V52 after 20 mg/kg intraperitoneal dose. It is filed as functional.
In test [30] the test system is Mus musculus. In words: Increase in mean survival days was determined in mice after ip administration of 40 mg/kg. It is filed as functional. Conditions: route intraperitoneal.
Test [31] has as its system Mus musculus. The test is described as follows: Antimalarial activity was evaluated against Plasmodium vinckei vinckei V52 after intraperitoneal administration at dose 40 mg/kg. Format: functional.
Test [32] relates to Plasmodium vinckei vinckei. In words: Antimalarial activity against Plasmodium vinckei vinckeii V52 after 10 mg/kg intraperitoneally dose. It is filed as functional. The settings on record: route intraperitoneal.
The subject of test [33] is Plasmodium vinckei vinckei. In words: Antimalarial activity against Plasmodium vinckei vinckeii V52 at 15 mg/kg intraperitoneally dose. Conditions: route intraperitoneal. Format: functional.
The subject of test [34] is Plasmodium vinckei vinckei. The test is described as follows: Antimalarial activity against Plasmodium vinckei vinckeii V52 at 20 mg/kg intraperitoneally dose. Format: functional. The settings on record: route intraperitoneal.
Test [35] has as its system Mus musculus. The test is described as follows: Antimalarial activity was evaluated against Plasmodium vinckei vinckeii V52 after intraperitoneal administration at dose 50 mg/kg. Format: functional.
Test [36] concerns Mus musculus. The test is described as follows: Antimalarial activity was evaluated against Plasmodium vinckei vinckeii V52 after intraperitoneal administration at dose 25 mg/kg. It is filed as functional.
In test [37] the test system is Mus musculus. The test is described as follows: Antimalarial activity was evaluated against Plasmodium vinckei V52 after intraperitoneal administration at dose 70 mg/kg. It is filed as functional.
The test system of test [38] is Mus musculus. In words: Increase in mean survival days was determined in mice after ip administration of 60 mg/kg; toxic. It is filed as functional. The settings on record: route intraperitoneal.
In test [39] the test system is Mus musculus. The test is described as follows: Antimalarial activity was evaluated against Plasmodium vinckei vinckei V52 after intraperitoneal administration at dose 25 mg/kg. Format: functional.
Test [40] has as its system Mus musculus. The test is described as follows: Antimalarial activity was evaluated against Plasmodium vinckei vinckei V52 after intraperitoneal administration at dose 30 mg/kg. Format: functional.
The subject of test [41] is Mus musculus. The test is described as follows: Antimalarial activity was evaluated against Plasmodium vinckei vinckei V52 after intraperitoneal administration at dose 60 mg/kg. Format: functional.
In test [42] the test system is Mus musculus. The test is described as follows: Antimalarial activity was evaluated against Plasmodium vinckei vinckeii V52 after intraperitoneal administration at dose 60 mg/kg. It is filed as functional.
In test [43] the test system is Mus musculus. The test is described as follows: Antimalarial activity was evaluated against Plasmodium vinckei V52 after intraperitoneal administration at dose 10 mg/kg. Format: functional.
Test [44] concerns Mus musculus. The test is described as follows: Antimalarial activity was evaluated against Plasmodium vinckei vinckeii V52 after intraperitoneal administration at dose 15 mg/kg. It is filed as functional.

On to `Cc1ccc(-n2c3nc(=O)n(C)c(=O)c-3nc3ccccc32)c(C)c1`, for which the Mean survival days with Mus musculus [1] was 0.4 days; in the test with Mus musculus [2], 1.3 days; with Mus musculus [3], -1.7 days; with Mus musculus [4], -2 days; in the test with Mus musculus [5], -2 days. For the same compound, the Cured in test [6] came to 0%; with Mus musculus [7] it was 40%; in the test with Mus musculus [8] it was 0%; in test [9] it was 0%; in [10] it was 20%.
For the compound `Cc1ccc(-n2c3nc(=O)n(C)c(=O)c-3nc3ccccc32)cc1C`, the Cured in the test with Mus musculus [11] stood at 100%; in the test with Mus musculus [12] it was 0%; in the test on Mus musculus [17], 0%; with Mus musculus [18] it was 0%; in the test with Mus musculus [8] it was 20%; in the test with Mus musculus [19], 60%. Moreover, the Mean survival days amounted to 0.3 days with Mus musculus [1]; 0.2 days in the test with Mus musculus [13]; 0.8 days in the test on Mus musculus [2]; 0.3 days in the test with Mus musculus [14]; 0.5 days in the test on Mus musculus [15]. Further, the ED40 in the test listed under Mus musculus [16] came to 210 µmol/kg.
In the case of `Cn1c(=O)nc2n(-c3ccccc3)c3ccccc3nc-2c1=O`, the Mean survival days is 0 days in the test with Mus musculus [1]; 0 days with Mus musculus [2]; 0.3 days with Mus musculus [14]; 0.5 days in the test with Mus musculus [15]; 1 days in test [20]. The ED40 in the test listed under Mus musculus [16] came out at 248 nM/kg. Further, the Cured in test [6] is 0%; in [21] it was 0%; in the test with Mus musculus [22], 0%; in the test with Mus musculus [19], 20%; in [9] it was 60%.
Regarding `Cn1c(=O)nc2n(-c3ccc(Cl)cc3)c3ccccc3nc-2c1=O`, the Mean survival days in the test with Mus musculus [1] is 0.3 days; in the test with Mus musculus [23], 4 days; in the test with Mus musculus [4], -0.8 days; in the test with Mus musculus [5], -1 days. Moreover, the ED40 in the test listed under Mus musculus [24] is 38.8 µmol/kg. For the same compound, the Cured in the test with Mus musculus [25] was 100%; in test [6], 20%; in the test with Mus musculus [26] it was 80%; in the test with Mus musculus [27], 100%; in test [21], 100%; in the test with Mus musculus [28], 20%. For the same compound, the Cured was 0% in [9] and 100% in test [29].
On to `Cn1c(=O)nc2n(-c3ccc(F)cc3)c3ccccc3nc-2c1=O`, for which the Mean survival days with Mus musculus [1] was 0 days; with Mus musculus [23], 0 days; in the test with Mus musculus [13], 13.4 days; with Mus musculus [2], 0 days; in the test with Mus musculus [30], 0 days; with Mus musculus [14] it was -0.5 days. In the test on Mus musculus [5], this compound returned a Mean survival days of -0.6 days. In the test listed under Mus musculus [24], this compound yielded an ED40 of 103 µmol/kg. Also, the Cured in test [6] turned out to be 0%; in the test with Mus musculus [26] it was 0%; in test [21] it was 80%; in the test with Mus musculus [31], 80%; in the test with Mus musculus [22], 20%; in test [9], 0%. In [29], this compound came in with a Cured of 0%.
Regarding `Cn1c(=O)nc2n(-c3ccc(Br)cc3)c3ccccc3nc-2c1=O`, the Cured in test [32] stood at 0%; in test [33], 100%; in test [34], 100%; in the test with Mus musculus [17], 100%; with Mus musculus [35], 40%; in the test with Mus musculus [36], 100%. Besides, the Cured with Mus musculus [37] came out at 0%. In the test listed under Mus musculus [24], this compound displayed an ED40 of 38.4 µmol/kg.
For `Cc1cc(C)cc(-n2c3nc(=O)n(C)c(=O)c-3nc3ccccc32)c1`, the Mean survival days with Mus musculus [1] is 0 days; with Mus musculus [23], 1 days; in the test on Mus musculus [14], 5.5 days; in the test with Mus musculus [38] it was 0.4 days. This compound also registered an ED40 in the test filed under Mus musculus [24] of 105 µmol/kg. Also, the Cured in test [6] is 0%; with Mus musculus [26], 60%; in the test with Mus musculus [18], 100%; with Mus musculus [39] it was 100%; in the test on Mus musculus [40], 100%; in the test with Mus musculus [7] it was 100%. Moreover, the Cured was 60% in the test on Mus musculus [8] and 0% in the test with Mus musculus [41].
In the case of `Cn1c(=O)nc2n(-c3cccc(Br)c3)c3ccccc3nc-2c1=O`, the Mean survival days was 0 days in the test with Mus musculus [1]; 0 days in the test with Mus musculus [23]; 0 days with Mus musculus [2]; 0 days in the test on Mus musculus [30]; 1 days with Mus musculus [14]; -1 days with Mus musculus [15]. For the same compound, the Cured amounted to 0% with Mus musculus [17]; 0% in the test with Mus musculus [25]; 80% in the test with Mus musculus [35]; 80% in the test with Mus musculus [42]; 100% in the test with Mus musculus [37]; 0% with Mus musculus [43]. Further, in the test on Mus musculus [44], the Cured amounted to 0%.
